Read-outs that look alike come from different tables or passages of the source.
Tests used:
[1] = rcm bond, 18-membered ring, Hoveyda-Grubbs II (5 mol%), then NaOH, 1,2-dichloroethane, 70.0 °C, 2.0 h, 2 steps
[2] = test system: NL-RLuc virus (recombinant HIV NL4-3 with Renilla Luciferase) in MT-2 cells; experiment: Inhibition of HIV replication (NL-RLuc virus in MT-2 cells, luciferase readout); type: cell-based, human immunodeficiency virus (HIV)
In short: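 NL4-3 carrying Renilla luciferase in place of part of nef, produced in 293T cells, was used to infect MT-2 cells in RPMI 1640/10% FBS with serial compound dilutions. After 5 days, virus growth was read by luciferase. EC50 came from the median effect equation over at least 2 experiments.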

[3] = MT2, 120 h, NL-RLuc virus infecting MT-2 cells, 5 days of incubation, 10% FBS, luciferase quantitation, at least 2 experiments

Row | Compound | EC50 [2, 3] [nM] | further results
1 | CCOC(=O)[C@@H](OC(C)(C)C)c1c(C)nc2cc3nn2c1N1CCC(C)(CC1)OCC=CCN(Cc1ccc(F)c(C)c1)C(=O)C(=O)NC3 | – | ring closure, yield after HPLC ([1]; from C=CCOC1(C)CCN(c2c([C@H](OC(C)(C)C)C(=O)OCC)c(C)nc3cc(CNC(=O)C(=O)N(CC=C)Cc4ccc(F)c(C)c4)nn23)CC1, 4.03 mM): 63.3%
2 | CCOC(=O)[C@@H](OC(C)(C)C)c1c(C)nc2cc3nn2c1N1CCC(C)(CC1)OCC=CCc1ccccc1C(=O)NC3 | – | ring closure, yield after HPLC ([1]; from C=CCOC1(C)CCN(c2c([C@H](OC(C)(C)C)C(=O)OCC)c(C)nc3cc(CNC(=O)c4ccccc4CC=C)nn23)CC1, 4.7 mM): 71.1%
3 | CCCC1CCCCOC2(C)CCN(CC2)c2c([C@H](OC(C)(C)C)C(=O)O)c(C)nc3cc(nn23)COCc2cc(F)ccc2O1 (stereo partly drawn) [Example 50, (2S)-2-(tert-butoxy)-2-{15-fluoro-4,26-dimethyl-20-propyl-11,19,25-trioxa-1,5,7,8-tetraazapentacyclo[24.2.2.1^6,^9.0^2,^7.0^13,^18]hentriaconta-2,4,6(31),8,13(18),14,16-heptaen-3-yl}acetic acid] | – | EC50 ([2]; {}): 19 nM
4 | Cc1nc2cc3nn2c(c1[C@H](OC(C)(C)C)C(=O)O)N1CCC(C)(CC1)OCCCCC(c1ccccc1)Oc1ccc(F)cc1COC3 (stereo partly drawn) [Example 51, (2S)-2-(tert-butoxy)-2-{15-fluoro-4,26-dimethyl-20-phenyl-11,19,25-trioxa-1,5,7,8-tetraazapentacyclo[24.2.2.1^6,^9.0^2,^7.0^13,^18]hentriaconta-2,4,6(31),8,13(18),14,16-heptaen-3-yl}acetic acid] | – | EC50 ([2]; {}): 18 nM
5 | Cc1nc2cc3nn2c(c1[C@H](OC(C)(C)C)C(=O)O)N1CCC(C)(CC1)OCCCCC(c1ccccc1)Oc1ccc(F)cc1COC3 (stereo partly drawn) [Example 52, (2S)-2-(tert-butoxy)-2-{15-fluoro-4,26-dimethyl-20-phenyl-11,19,25-trioxa-1,5,7,8-tetraazapentacyclo[24.2.2.1^6,^9.0^2,^7.0^13,^18]hentriaconta-2,4,6(31),8,13(18),14,16-heptaen-3-yl}acetic acid] | – | EC50 ([2]; {}): 60 nM
6 | Cc1nc2cc3nn2c(c1[C@H](OC(C)(C)C)C(=O)O)N1CCC(C)(CC1)OCCCC[C@H](C)Oc1cc2ccccc2cc1COC3 [Example 53, (2S)-2-(tert-butoxy)-2-[(24S)-4,24,30-trimethyl-11,23,29-trioxa-1,5,7,8-tetraazahexacyclo[28.2.2.1^6,^9.0^2,^7.0^13,^22.0^15,^20]pentatriaconta-2,4,6(35),8,13,15,17,19,21-nonaen-3-yl]acetic acid] | 2 | –
7 | Cc1nc2cc3nn2c(c1[C@H](OC(C)(C)C)C(=O)O)N1CCC(C)(CC1)OCCCCC(C(F)(F)F)Oc1cc(F)ccc1COC3 (stereo partly drawn) [Example 54, (2S)-2-(tert-butoxy)-2-[16-fluoro-4,26-dimethyl-20-(trifluoromethyl)-11,19,25-trioxa-1,5,7,8-tetraazapentacyclo[24.2.2.1^6,^9.0^2,^7.0^13,^18]hentriaconta-2,4,6(31),8,13,15,17-heptaen-3-yl]acetic acid] | 7 | –
8 | Cc1nc2cc3nn2c(c1[C@H](OC(C)(C)C)C(=O)O)N1CCC(C)(CC1)OCCCCCc1ccccc1COC3 [Example 57, (2S)-2-(tert-Butoxy)-2-{4,25-dimethyl-11,24-dioxa-1,5,7,8-tetraazapentacyclo[23.2.2.1^6,^9.0^2,^7.0^13,^18]triaconta-2,4,6(30),8,13(18),14,16-heptaen-3-yl}acetic acid] | 34 | –
9 | Cc1nc2cc3nn2c(c1[C@H](OC(C)(C)C)C(=O)O)N1CCC(C)(CC1)OCCCCCCc1ccccc1COC3 [Example 58, (2S)-2-(tert-Butoxy)-2-{4,26-dimethyl-11,25-dioxa-1,5,7,8-tetraazapentacyclo[24.2.2.1^6,^9.0^2,^7.0^13,^18]hentriaconta-2,4,6(31),8,13(18),14,16-heptaen-3-yl}acetic acid] | 62 | –
10 | Cc1nc2cc3nn2c(c1[C@H](OC(C)(C)C)C(=O)O)N1CCC(C)(CC1)OCCCCCc1cccc(c1)COC3 [Example 59, (2S)-2-(tert-Butoxy)-2-{4,24-dimethyl-11,23-dioxa-1,5,7,8-tetraazapentacyclo[22.2.2.1^6,^9.1^13,^17.0^2,^7]triaconta-2,4,6(30),8,13(29),14,16-heptaen-3-yl}acetic acid] | 16 | –
11 | Cc1nc2cc3nn2c(c1[C@H](OC(C)(C)C)C(=O)O)N1CCC(C)(CC1)OCCCCCc1cc(F)ccc1COC3 [Example 60, (2S)-2-(tert-Butoxy)-2-{16-fluoro-4,25-dimethyl-1,24-dioxa-1,5,7,8-tetraazapentacyclo[23.2.2.1^6,^9.0^2,^7.0^13,^18]triaconta-2,4,6(30),8,13(18),14,16-heptaen-3-yl}acetic acid] | 13 | –
12 | Cc1nc2cc3nn2c(c1[C@H](OC(C)(C)C)C(=O)O)N1CCC(C)(CC1)OCCCC[C@H](C)Oc1c(ccc2ccccc12)COC3 [Example 61, (2S)-2-(tert-butoxy)-2-[(24S)-4,24,30-trimethyl-11,23,29-trioxa-1,5,7,8-tetraazahexacyclo[28.2.2.1^6,^9.0^2,^7.0^13,^22.0^16,^21]pentatriaconta-2,4,6(35),8,13(22),14,16(21),17,19-nonaen-3-yl]acetic acid] | 5 | –
13 | Cc1nc2cc3nn2c(c1[C@H](OC(C)(C)C)C(=O)O)N1CCC(C)(CC1)OCCCCCc1cc(F)ccc1CN(C1CC1)C3 [Example 62, (2S)-2-(tert-Butoxy)-2-{11-cyclopropyl-16-fluoro-4,25-dimethyl-24-oxa-1,5,7,8,11-pentaazapentacyclo[23.2.2.1^6,^9.0^2,^7.0^13,^18]triaconta-2,4,6(30),8,13(18),14,16-heptaen-3-yl}acetic acid] | 41 | –
14 | Cc1nc2cc3nn2c(c1[C@H](OC(C)(C)C)C(=O)O)N1CCC(C)(CC1)OCCCCc1cccc(c1)COC3 [Example 63, (2S)-2-(tert-Butoxy)-2-{4,23-dimethyl-11,22-dioxa-1,5,7,8-tetraazapentacyclo[21.2.2.1^6,^9.1^13,^17.0^2,^7]nonacosa-2,4,6(29),8,13(28),14,16-heptaen-3-yl}acetic acid] | 16 | –
15 | Cc1ccc2c(c1)O[C@@H](C)CCCCOC1(C)CCN(CC1)c1c([C@H](OC(C)(C)C)C(=O)O)c(C)nc3cc(nn13)CN(C1CC1)C2 [Example 64, (2S)-2-(tert-Butoxy)-2-[(20S)-11-cyclopropyl-4,16,20,26-tetramethyl-19,25-dioxa-1,5,7,8,11-pentaazapentacyclo[24.2.2.1^6,^9.0^2,^7.0^13,^18]hentriaconta-2,4,6(31),8,13(18),14,16-heptaen-3-yl]acetic acid] | 12 | –
16 | Cc1ccc2c(c1)CCCCOC1(C)CCN(CC1)c1c([C@H](OC(C)(C)C)C(=O)O)c(C)nc3cc(nn13)COC2 [Example 65, (2S)-2-(tert-Butoxy)-2-{4,16,24-trimethyl-11,23-dioxa-1,5,7,8-tetraazapentacyclo[22.2.2.1^6,^9.0^2,^7.0^13,^18]nonacosa-2,4,6(29),8,13(18),14,16-heptaen-3-yl}acetic acid] | 2 | –
17 | Cc1nc2cc3nn2c(c1[C@H](OC(C)(C)C)C(=O)O)N1CCC(C)(CC1)OCCCCc1cc(F)ccc1COC3 [Example 66, (2S)-2-(tert-Butoxy)-2-{16-fluoro-4,24-dimethyl-11,23-dioxa-1,5,7,8-tetraazapentacyclo[22.2.2.1^6,^9.0^2,^7.0^13,^18]nonacosa-2,4,6(29),8,13(18),14,16-heptaen-3-yl}acetic acid] | 4 | –
18 | Cc1nc2cc3nn2c(c1[C@H](OC(C)(C)C)C(=O)O)N1CCC(C)(CC1)OCCCc1cc(F)ccc1COC3 [Example 67, (2S)-2-(tert-Butoxy)-2-{16-fluoro-4,23-dimethyl-11,22-dioxa-1,5,7,8tetraazapentacyclo[21.2.2.1^6,^9.0^2,^7.0^13,^18]octacosa-2,4,6(28),8,13(18),14,16-heptaen-3-yl}acetic acid] | 5 | –
19 | Cc1nc2cc3nn2c(c1[C@H](OC(C)(C)C)C(=O)O)N1CCC(C)(CC1)OCCCCc1cc(F)c(F)cc1COC3 [Example 68, (2S)-2-(tert-Butoxy)-2-{15,16-difluoro-4,24-dimethyl-11,23-dioxa-1,5,7,8-tetraazapentacyclo[22.2.2.1^6,^9.0^2,^7.0^13,^18]nonacosa-2,4,6(29),8,13(18),14,16-heptaen-3-yl}acetic acid] | 1 | –
20 | Cc1cc2c(cc1Cl)COCc1cc3nc(C)c([C@H](OC(C)(C)C)C(=O)O)c(n3n1)N1CCC(C)(CC1)OCCCC[C@H](C)O2 [Example 69, (2S)-2-(tert-Butoxy)-2-[(20S)-15-chloro-4,16,20,26-tetramethyl-11,19,25-trioxa-1,5,7,8-tetraazapentacyclo[24.2.2.1^6,^9.0^2,^7.0^13,^18]hentriaconta-2,4,6(31),8,13,15,17-heptaen-3-yl]acetic acid] | 12 | –
21 | Cc1cc2c(cc1Cl)COCc1cc3nc(C)c([C@H](OC(C)(C)C)C(=O)O)c(n3n1)N1CCC(C)(CC1)OCCCCC[C@H](C)O2 [Example 70, (2S)-2-(tert-Butoxy)-2-[(20S)-15-chloro-4,16,20,27-tetramethyl-11,19,26-trioxa-1,5,7,8-tetraazapentacyclo[25.2.2.1^6,^9.0^2,^7.0^13,^18]dotriaconta-2,4,6(32),8,13,15,17-heptaen-3-yl]acetic acid] | 43 | –
22 | (2S)-2-(tert-Butoxy)-2-[4,22-dimethyl-15-(propan-2-yl)-16,21-dioxa-1,5,7,8,11,12,13-heptaazapentacyclo[20.2.2.1^6,^9.1^11,^14.0^2,^7]octacosa-2,4,6(28),8,12,14(27),19-heptaen-3-yl]acetic acid [Example 9] | – | EC50 ([2]; NL-RLuc virus infecting MT-2 cells, 5 days of incubation, 10% FBS, luciferase quantitation, at least 2 experiments, read-out: EC50): 93 nM

— patent publication US9273067B2, “Pyrazolopyrimidine macrocycles as inhibitors of human immunodeficiency virus replication” (BRISTOL-MYERS SQUIBB COMPANY, priority 2014, dated 2016)
